Test [1] deals with protein kinase C (PKC). To be noted: Excerpt from BIO/TECHNOLOGY, 8, 732, 1990, cited from earlier work.
The test system of test [2] is hair-follicle organ culture. The note with it: British Journal of Dermatology, 133, 5, 686–693, 1995; cited from earlier work.
Test [3] deals with protein kinase A (PKA). The note with it: Excerpt from BIO/TECHNOLOGY, 8, 732, 1990; cited from earlier work.
In test [4] the test system is Mouse hair-follicle cells. In words: Hair growth promoting effect in mouse hair-follicle cell culture (Neutral Red). The class given is cell-based. To be noted: for Relative Degree of Cell Growth, vehicled on the degree of cell growth of 100 in Control: 5 days. The procedure: Mouse hair-follicle cells were cultivated and collected, according to the modified method of the Tanigai et al's method (see Archives of Dermatological Research, 284, 290–296, 1992) while suitably modifying the method.
That is, the skin was peeled from the back of a 4-day age C3H mouse (bought from Nippon Charles River Co.), and processed with an MEM (Minimum Essential Medium, Eagle) containing 500 units/ml Disperse (produced by Godo Shusei Co.) and 5% FCS, at 4° C. for 16 hours.
The epidermis was removed from said skin sample, and the resulting dermis layer was processed with a DMEM (Dulbecco's Modified Eagle Medium) containing 0.25% collagenase N-2 (produced by Nitta Gelatin Co.) and 10% FCS, at 37° C. for 1 hours, to prepare a dermis suspension.
This dermis suspension was filtrated through a 212-micron nylon mesh (produced by Nippon Rikagaku Kikai KK), and the resulting filtrate was centrifuged at 1,000 rpm for 5 minutes to obtain hair-follicle tissue-containing pellets.
The resulting pellets were suspended in a Ca-Mg-free PBS (Dulbecco's Phosphate-Buffered Saline), using a pipette, and then statically left as it was for 15 minutes, whereby the hair-follicle tissue was precipitated.
The thus-obtained hair-follicle tissue was repeatedly processed for a total of three times according to the same process as above comprising the addition of a Ca-Mg-free PBS, the suspension with a pipette, and the precipitation for 15 minutes.
The hair-follicle tissue thus obtained finally was processed with 0.1% EDTA-0.25% trypsin (produced by Gibco Co.) at 37° C. for 5 minutes, to which was then added a DMEM containing 10% FCS. Thus was prepared herein a hair-follicle tissue cell suspension comprising 3×10^5 cells/ml.
This hair-follicle tissue cell suspension was pipetted into a 24-well collagen-coated plate (produced by Iwaki Glass Co.) in an amount of 1 ml/well, and cultivated at 37° C. in 5% CO2 for 24 hours.
The resulting culture was then subjected to medium exchange with an MCDB153 medium (produced by Kyokuto Pharmaceutical Co.) containing 5 mg/liter insulin from bovine (produced by Sigma Co.), 5 μg/liter mouse EGF (produced by Takara Shuzo Co.), 40 mg/liter bovine pituitary extract (produced by Kyokuto Pharmaceutical Co.), 10 mg/liter human transferrin (produced by Sigma Co.), 0.4 mg/liter hydrocortisone (produced by Sigma Co.), 0.63 μg/liter progesterone (produced by Collaborative Research Co.), 14 mg/liter O-phosphoethanolamine (produced by Sigma Co.), 6.1 mg/liter ethanolamine (produced by Sigma Co.), 50 U/ml penicillin (produced by Wako Co.), 50 μg/ml streptomycin (produced by Wako Co.), and an DMSO solution comprising a PKC inhibitor of the invention (this was added in an amount of 1/100 by volume relative to the medium), and then further cultivated at 37° C. in 5% CO2 for 5 days. During the incubation, the medium was exchanged with a fresh one every other day.
As the control, the cell culture was cultivated in the same manner as above, except that only DMSO of 1/100 by volume relative to the medium was added to the medium in place of the PKC inhibitor-containing DMSO solution.
To determine the degree of cell growth, referred to herein was a known method of using Neutral Red (see Journal of Tissue Culture Method, 9, 1, 7–9, 1984). […]
The absorbance of the extract at 540 nm was measured, from which was obtained the degree of growth of the cells.

The target in test [5] is protein kinase A (PKA) (Bos taurus, UniProt P00517). Description: PKA-inhibiting activity measuring method (Kuo et al.). The class given is biochemical. To be noted: crude enzyme partially purified from calf heart. The procedure:
(2) Method for Measuring PKA-inhibiting Activity
To measure the PKA-inhibiting activity of a protein kinase inhibitor, referred to is the Kuo et al's method (see Biochemistry, 64, 1349, 1969).
Precisely, 10 μl of a sample to be tested for determining its activity is added to 250 μl of a solution comprising 5 μmols of Tris-HCl buffer (pH 6.8), 2.5 μmols of magnesium acetate, 100 μg of histone Type IIS (produced by Sigma Co.), 0.25 nmols of c-AMP and 200 μg of a crude enzyme (as partially purified from a calf heart according to the Kuo et al's method), and incubated therein at 30° C. for 3 minutes.
After the completion of the incubation, 1.25 nmols of [g-^32P]ATP (from 5×10^3 to 10×10^3 cpm/nmol) is added to the system, and phosphorylation reaction is carried out at 30° C. for 3 minutes, and thereafter the reaction is terminated by adding 25% trichloroacetic acid thereto.
The resulting reaction mixture is filtrated through a cellulose acetate membrane (pore size: 0.45 μm) (produced by Toyo Filter Co.), and the membrane is washed four times with 5% trichloroacetic acid, and thereafter the radioactivity of the residue remained on the membrane is measured to be a value of the sample.
On the other hand, the same process as described above is repeated without adding the sample to the system, and the radioactivity is obtained to be a control value.

Test [6] deals with T1, protein kinase C (PKC).
T1 construct: PKC-IC50; other: crude enzyme partially purified from rat brain
In words: PKC-inhibiting activity measuring method (Kikkawa et al.). The class given is biochemical, rat. The note with it: crude enzyme partially purified from rat brain.
Description: (§1) (1) Method for Measuring PKC-inhibiting Activity
(§2) Precisely, 10 μl of a sample to be tested for determining its activity is added to 250 μl of a solution comprising 2.5 μmols of magnesium acetate, 50 μg of histone Type IIIS (produced by Sigma Co.), 20 μg of phosphatidylserine, 0.8 μg of diolein, 25 μmols of calcium chloride, 5 μg of a crude enzyme (as partially purified from a rat brain according to the Kikkawa et al's method) and 5 μmols of Tris-HCl buffer (pH 7.5), and incubated therein at 30° C. for 3 minutes.

Test [7] deals with protein kinase C (PKC). The description is as above. The note with it: ratio, selectivity PKC over PKA. The class given is biochemical, rat.
Description: as §1, §2

Like-named read-outs stand apart in the source and are kept apart here.

The values below come from patent US7033580B2, “Hair-growing agent” (priority 1996, dated 2006).

Turning to `CC1CNCCN1S(=O)(=O)c1cccc2cnccc12` (stereo not shown) [Composition H-7, 1-(5-Isoquinolinylsulfonyl)-2-methylpiperazine], the IC50 at protein kinase C (PKC) [1] is 15 µM; on protein kinase A (PKA) [3], 13 µM. Further, in the test on protein kinase C (PKC) [1] (ratio), the PKA-IC50/PKC-IC50 is 0.87. The “effect on hair growth retardation by 12-O-tetragalloyl-phorbol-13-acetate (in words)” value in test [2] was “release the hair growth-retarding activity”.
Turning to `COC(=O)[C@@]1(O)C[C@H]2O[C@]1(C)n1c3ccccc3c3c4c(c5c6ccccc6n2c5c31)C(=O)NC4` [Composition K252a], the “effect on growth of mouse hair-follicle cells (in words)” value in test [4] is reported as “inhibited the growth of mouse hair-follicle cells”. Also, the IC50 at protein kinase A (PKA) [3] was 0.02 µM.
As to calphostin C, the IC50 is more than 50 µM at protein kinase A (PKA) [5] and 0.05 µM at protein kinase C (PKC) [6]. The PKA-IC50/PKC-IC50 in the test with protein kinase C (PKC) [7] is more than 1000. In test [4] (Concentration 0.1 μM), the “Relative Degree of Cell Growth, vehicled on the degree of cell growth of 100 in Control” value turned out to be 160.
As to `CCCCCCCCCCCCCCCC(=O)OC(CC(=O)O)C[N+](C)(C)C.[Cl-]` (racemic) [Palmitoyl-DL-carnitine Hydrochloride, palmitoyl-DL-carnitine hydrochloride], the results for the IC50 on protein kinase A (PKA) [5] and at protein kinase C (PKC) [6] were more than 300 µM and 100 µM, respectively. In addition, the PKA-IC50/PKC-IC50 in the test with protein kinase C (PKC) [7] is listed as more than 3. Moreover, the “Relative Degree of Cell Growth, vehicled on the degree of cell growth of 100 in Control” value in test [4] (Concentration 10 μM) stood at 170.
The corresponding values for polymyxin B sulfate are more than 100 µM, 10 µM, more than 10 and 360.
`CN[C@@H]1C[C@H]2O[C@@](C)([C@@H]1OC)n1c3ccccc3c3c4c(c5c6ccccc6n2c5c31)C(=O)NC4` [Staurosporine]: the “effect on growth of mouse hair-follicle cells (in words)” value in test [4] was “inhibited the growth of mouse hair-follicle cells”.
